Legend:
Conditions in all cases: 72 h
BV-173 [1] = experiment: cell viability (% survival relative to DMSO control, bortezomib = 0%); higher = less cytotoxic
Outline: (§1)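 Percent survival is reported as the mean of duplicate wells. Cells from 10 AML and 5 CML lines were plated in 384-well plates containing compounds at 1, 10, 100, 1000 or 10000 nM and kept for 72 h at 37 °C in 5% CO2. Readout used CellTiter-Glo luminescence, scaled so that vehicle equals 100% and a 10 µM positive control equals 0%.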

LAMA-84 [2] = experiment: as above
Outline: as §1

MV4-11 [3] = experiment: as above
Outline: as §1

Mono-Mac-6 [4] = experiment: as above
Outline: as §1

ML-2 [5] = experiment: as above
Outline: as §1

KCL-22 [6] = experiment: as above
Outline: as §1

NOMO-1 [7] = experiment: as above
Outline: as §1

KU-812 [8] = experiment: as above
Outline: as §1

THP-1 [9] = experiment: as above
Outline: as §1

K-562 [10] = experiment: as above
Outline: as §1

MOLM-13 [11] = experiment: as above
Outline: as §1

KG-1 [12] = experiment: as above
Outline: as §1

HEL [13] = experiment: as above
Outline: as §1

HL-60 [14] = experiment: as above
Outline: as §1

SHI-1 [15] = experiment: as above
Outline: as §1

BV-173 [16] = test system: BV-173
Outline: (§2)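 Fifteen myeloid leukaemia cell lines were seeded in RPMI 1640 at densities titrated to the linear growth range and placed in 384-well plates with acoustically pre-printed compounds at five tenfold doses from 1 to 10,000 nM, in duplicate. After 72 h at 37 °C with 5% CO2, luminescent ATP viability was normalised to vehicle and to a positive control at 10 µM, and curves were fitted with a four-parameter log-logistic model. The IC50 was obtained from these fits.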

LAMA-84 [17] = test system: LAMA-84
Outline: as §2

MV4-11 [18] = test system: MV4-11
Outline: as §2

Mono-Mac-6 [19] = test system: Mono-Mac-6
Outline: as §2

ML-2 [20] = test system: ML-2
Outline: as §2

KCL-22 [21] = test system: KCL-22
Outline: as §2

NOMO-1 [22] = test system: NOMO-1
Outline: as §2

KU-812 [23] = test system: KU-812
Outline: as §2

THP-1 [24] = test system: THP-1
Outline: as §2

K-562 [25] = test system: K-562
Outline: as §2

MOLM-13 [26] = test system: MOLM-13
Outline: as §2

KG-1 [27] = test system: KG-1
Outline: as §2

HEL [28] = test system: HEL
Outline: as §2

HL-60 [29] = test system: HL-60
Outline: as §2

SHI-1 [30] = test system: SHI-1
Outline: as §2

O=NN(CCCl)C(=O)NCCCl [Carmustine]
cell viability [%]
Conditions | 1 nM | 10 nM | 100 nM | 1000 nM | 10000 nM
BV-173 [1] | 102 | 120 | 105 | 95.3 | 78.5
HEL [13] | 98.3 | 114 | 111 | 103 | 101
HL-60 [14] | 98.8 | 101 | 98.1 | 97.8 | 101
K-562 [10] | 95.1 | 123 | 75.8 | 111 | 101
KCL-22 [6] | 83.1 | 122 | 104 | 88.8 | 97.4
KG-1 [12] | 110 | 114 | 108 | 102 | 97.5
KU-812 [8] | 99.4 | 118 | 114 | 98.5 | 97.1
LAMA-84 [2] | 98.7 | 93.1 | 105 | 92.9 | 99.3
ML-2 [5] | 104 | 122 | 106 | 96 | 106
MOLM-13 [11] | 97.6 | 106 | 98.2 | 106 | 101
MV4-11 [3] | 96.3 | 104 | 103 | 106 | 83.4
Mono-Mac-6 [4] | 106 | 97.8 | 99.8 | 109 | 117
NOMO-1 [7] | 102 | 103 | 104 | 100 | 99
SHI-1 [15] | 87 | 109 | 97.6 | 128 | 104
THP-1 [9] | 97.6 | 107 | 102 | 101 | 98.9

Conditions | IC50 (cell viability) [µM]
BV-173 [16] | > 10
HEL [28] | > 10
HL-60 [29] | > 10
K-562 [25] | > 10
KCL-22 [21] | > 10
KG-1 [27] | > 10
KU-812 [23] | > 10
LAMA-84 [17] | > 10
ML-2 [20] | > 10
MOLM-13 [26] | > 10
MV4-11 [18] | > 10
Mono-Mac-6 [19] | > 10
NOMO-1 [22] | > 10
SHI-1 [30] | > 10
THP-1 [24] | > 10
